For one test, the target named is T1, ULK1 kinase (Homo sapiens, UniProt O75385, E37A/K38A).
T1 construct: purchased Beryllium
T1 sequence (O75385 1-283 E37A/K38A): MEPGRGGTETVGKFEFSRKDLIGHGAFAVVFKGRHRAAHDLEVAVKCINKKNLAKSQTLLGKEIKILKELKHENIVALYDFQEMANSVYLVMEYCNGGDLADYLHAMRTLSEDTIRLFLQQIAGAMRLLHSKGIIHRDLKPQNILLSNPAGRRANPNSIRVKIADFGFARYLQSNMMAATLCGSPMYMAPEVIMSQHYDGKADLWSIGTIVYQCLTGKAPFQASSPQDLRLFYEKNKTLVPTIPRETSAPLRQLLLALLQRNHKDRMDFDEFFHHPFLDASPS
Description: Biochemical assay for ULK1.3 (coupled pyruvate kinase/lactate dehydrogenase assay, peptide substrate). Conditions: 0.1 nM ULK1 (residues 1-283), 1 mM ATP. Here is the method:
Biochemical Assay for ULK1.3 (SEQ. ID NO: 2)
Inhibition of ULK1 was measured by adding serial diluted test compound (final assay concentration of 1% DMSO). A decrease in absorption at 340 nm was monitored continuously for 6 hours at 30° C. on a multi-mode microplate reader (BioTek). The reaction rate was calculated using the 2-3 h time frame. The reaction rate at each concentration of compound was converted to percent inhibition using controls (i.e. reaction with no test compound and reaction with a known inhibitor) and IC50 values were calculated using software routines in Prism (GraphPad software).

The subject of test [1] is ULK kinase. As to the kind of experiment: pATG13 levels of mutant KRas A549 cells after treatment with ULK inhibitors in combination with trametinib (ELISA). It is filed as cell-based, human. Conditions: A549 (KRAS mutant) lung cancer cells, 250 nM trametinib, overnight, pS318-ATG13. As for the experimental part:
Cellular Inhibition of ULK Kinase Substrate ATG13 Protein pATG13 Levels of Mutant KRas A549 Cells after Treatment with ULK Inhibitors in Combination with Trametinib
(§1) A549 (KRAS mutant) human lung cancer cells (6,000 cells/well) were added to a 384-well tissue-culture treated plate in 50 μL of pre-warmed DMEM medium supplemented with 10% characterized fetal bovine serum (Invitrogen, Carlsbad, Calif.), 100 units/mL penicillin G, and 100 μg/mL streptomycin and allowed to grow overnight at 37° C., 5% CO2, and 95% humidity. The following day, 10 μL of media containing trametinib or DMSO as a control was added to wells. […] A dose response of a test compound (0.6 μL per well) was added. DMSO (0.6 μL) was added to control wells. The plate was briefly shaken to mix wells and then incubated at 37° C. overnight. The next day, the media was aspirated and cells were washed with Dulbecco's Phosphate Buffered Saline (Gibco). Cells were lysed using MPER lysis buffer (Pierce, Rockford, Ill.) containing Halt Phosphatase and Protease Inhibitors (Pierce, Rockford, Ill.) and Phosphatase inhibitor cocktail 2 (Sigma, St. Louis, Mo.) at 4° C. for 10 minutes with shaking.
(§2) Plate wells were washed with ELISA wash buffer. Cell lysate was added to wells and incubated at room temperature for 2 hours. Plate wells were washed with ELISA wash buffer. […] Plate wells were washed with ELISA wash buffer. […] Plate wells were washed with ELISA wash buffer. […] The reaction was stopped with 2N Sulfuric Acid. The plate was analyzed at on a plate reader measuring absorbance at 450 nm and 540 nm (background). Signal was calculated by first subtracting the background absorbance at 540 nm from the absorbance at 450 nm for each well. Next, the background corrected absorbance at 450 nm from blank wells was subtracted from test wells. Data was compared to control wells to determine % ATG13 phosphorylation. GraphPad Prism was used to calculate IC50 values.
In general terms: In an ELISA, binding on a coated surface is turned into a signal by an enzyme label.

In test [2] the test system is ULK kinase. As to the kind of experiment: pATG13 levels of mutant KRas MiaPaCa-2 cells after treatment with ULK inhibitors in combination with trametinib (ELISA). The class given is cell-based, human. Conditions: MiaPaCa-2 pancreatic cancer cells, 250 nM trametinib, overnight, pS318-ATG13. As for the experimental part:
as §1, with “MiaPaCa-2” for “A549 (KRAS mutant)”, “pancreatic” for “lung”, “(10000” for “(6,000”, “G, 100 µg/mL streptomycin,” for “G,”, “2.5% Horse Serum” for “100 μg/mL streptomycin”
as §2

The structures appear in SMILES notation.

A word on the IC50: it is the concentration that inhibits the measured activity by half.

Take `CC(C)c1cc(N2CCN(C)CC2)ccc1Nc1ncc(Br)c(NCCCN2CCCCC2=O)n1` [Example 15]: the IC50 against ULK1 kinase fell in the range of 25 to 100 nM. The same measure, in the same setting: next, `CN1CCCN(c2ccc(Nc3ncc(C(F)(F)F)c(NCCCN4CCCCC4=O)n3)c(C3CC3)c2)CC1` [Example 24]: 1 to 25 nM. For `CN1CCN(c2ccc(Nc3ncc(Br)c(NCCCN4CCCCC4=O)n3)c(C3CC3)c2)CC1` [Example 26], the figures for the 50% inhibitory concentration (IC50) against ULK1 kinase, in the test on ULK kinase [1] and with ULK kinase [2] were 1 to 25 nM, 100 to 300 nM and 10 to 100 nM, respectively. For `CN1CCN(c2ccc(Nc3ncc(Cl)c(NCCCN4CCCCC4=O)n3)c(C3CC3)c2)CC1` [Example 27], the values for the IC50 on ULK1 kinase, in the test with ULK kinase [1] and in the test with ULK kinase [2] were 25 to 100 nM, 100 to 300 nM and 100 to 300 nM, respectively. Turning to `CCN1CCN(c2ccc(Nc3ncc(C(F)(F)F)c(NCCCN4CCCCC4=O)n3)c(C(C)C)c2)CC1` [Example 28], the IC50 is 1 to 25 nM on ULK1 kinase, 100 to 300 nM in the test on ULK kinase [1] and 100 to 300 nM in the test on ULK kinase [2]. For the compound `CCN1CCN(c2ccc(Nc3ncc(Cl)c(NCCCN4CCCCC4=O)n3)c(C(C)C)c2)CC1` [Example 29], the IC50 against ULK1 kinase was 100 to 500 nM.

In the case of `CCN1CCN(c2ccc(Nc3ncc(Br)c(NCCCN4CCCCC4=O)n3)c(C(C)C)c2)CC1` [Example 30], the half-maximal inhibitory concentration (IC50) was 25 to 100 nM against ULK1 kinase, 300 to 600 nM in the test on ULK kinase [1] and 100 to 300 nM in the test with ULK kinase [2]. On to `CCc1cc(N2CCCN(C)CC2)ccc1Nc1ncc(C(F)(F)F)c(NCCCN2CCCCC2=O)n1` [Example 31], for which the half-inhibitory concentration (IC50) lay in the range of 1 to 25 nM on ULK1 kinase, 300 to 600 nM with ULK kinase [1] and 100 to 300 nM in the test on ULK kinase [2]. The like results for `CC(=O)N1CCN(c2ccc(Nc3ncc(C(F)(F)F)c(NCCCN4CCCCC4=O)n3)c(C3CC3)c2)CC1` [Example 36, 1-(3-((2-((4-(4-acetylpiperazin-1-yl)-2-cyclopropylphenyl)amino)-5-(trifluoromethyl)pyrimidin-4-yl)amino)propyl)piperidin-2-one] were, in that order, 25 to 100 nM, more than 600 nM and more than 600 nM. The compound `CN1CCN(c2ccc(Nc3ncc(C(F)(F)F)c(NCCCN4CCCCCC4=O)n3)c(C3CC3)c2)CC1` [Example 38] displayed an IC50 at ULK1 kinase of 1 to 25 nM. Turning to `CN1CCN(c2ccc(Nc3ncc(Br)c(NCCCN4CCCOC4=O)n3)c(C3CC3)c2)CC1` [Example 40], the concentration for half-maximal inhibition (IC50) against ULK1 kinase is 1 to 25 nM; in the test with ULK kinase [1], 10 to 100 nM; in the test on ULK kinase [2], 10 to 100 nM. For `O=C1OCCCN1CCCNc1nc(Nc2ccc(N3CCN4CCC[C@@H]4C3)cc2C2CC2)ncc1C(F)(F)F` [Example 42], the figures for the concentration for half-maximal inhibition (IC50) at ULK1 kinase, with ULK kinase [1] and in the test on ULK kinase [2] were 1 to 25 nM, 10 to 100 nM and 10 to 100 nM, respectively.

Consider `CCc1cc(N2CCN(C)CC2)ccc1Nc1ncc(Cl)c(NCCCN2CCCOC2=O)n1` [Example 43], for which, on ULK1 kinase, the IC50 was 25 to 100 nM. On to `CCc1cc(N2CCN(C)CC2)ccc1Nc1ncc(Br)c(NCCCN2CCCOC2=O)n1` [Example 44], for which the IC50 is 1 to 25 nM on ULK1 kinase, 10 to 100 nM in the test on ULK kinase [1] and 10 to 100 nM in the test with ULK kinase [2]. Regarding `CCc1cc(N2CCN(C)CC2)ccc1Nc1ncc(C2CC2)c(NCCCN2CCCOC2=O)n1` [Example 45], the IC50 at ULK1 kinase lay in the range of 100 to 500 nM. As for `CCc1cc(N2CCN(C)CC2)ncc1Nc1ncc(C(F)(F)F)c(NCCCN2CCCOCC2=O)n1` [Example 53], the IC50 at ULK1 kinase was in the range of 25 to 100 nM. For `CCc1cc(N2CCCN(C)CC2)ccc1Nc1ncc(C(F)(F)F)c(NCCCN2CCCOCC2=O)n1` [Example 63], at ULK1 kinase, the IC50 is 25 to 100 nM. For the compound `CC(C)c1cc(N2CCN(C)CC2)ccc1Nc1ncc(Br)c(NCCCN2CCCOCC2=O)n1` [Example 77], the IC50 against ULK1 kinase lay within 25 to 100 nM. `CCc1cc(N2CCN(C)CC2)ccc1Nc1ncc(C2CC2)c(NCCCN2CCOCCC2=O)n1` [Example 83]: at ULK1 kinase, the IC50 was more than 500 nM. `O=C1CCOCCN1CCCNc1nc(Nc2ccc(N3CCNCC3)cc2C2CC2)ncc1Cl` [Example 89] registered an IC50 on ULK1 kinase of 100 to 500 nM.

In turn, `CN1CCN(c2ccc(Nc3cc(NCCCN4CCCCC4=O)c(C(F)(F)F)cn3)c(C3CC3)c2)CC1` [Example 94] gave an IC50 on ULK1 kinase of 25 to 100 nM. As to `CN1CCN(c2ccc(Nc3cc(NCCCN4CCCCC4=O)c(C(F)(F)F)cn3)nc2)CC1` [Example 97, 1-(3-((2-((5-(4-methylpiperazin-1-yl)pyridin-2-yl)amino)-5-(trifluoromethyl)pyridin-4-yl)amino)propyl)piperidin-2-one], on ULK1 kinase, the half-inhibitory concentration (IC50) was 100 to 500 nM. The same measure, in the same setting: for `CN1CCN(c2ccc(Nc3cc(NCCCN4CCOCCC4=O)c(Cl)cn3)c(C3CC3)c2)CC1` [Example 104] the value was 100 to 500 nM; for `CCc1cc(N2CCN3CCC[C@H]3C2)ccc1Nc1ncc(C(F)(F)F)c(NCCCN2CCCOC2=O)n1` [Example 121], 1 to 25 nM; for `CCc1cc(N2CCN(C)CC2)ncc1Nc1ncc(C(F)(F)F)c(NCCCN2CCCOC2=O)n1` [Example 128], 1 to 25 nM. As to `CN1C2CCC1CN(c1ccc(Nc3ncc(C(F)(F)F)c(NCCCN4CCOCCC4=O)n3)c(C3CC3)c1)C2` [Example 133], on ULK1 kinase, the concentration for half-maximal inhibition (IC50) fell in the range of 100 to 500 nM. The same measure, in the same setting: for `CN1CCN(c2ccc(Nc3ncc(C(F)(F)F)c(NCCCN4CCOCCC4=O)n3)c(C(C)(C)O)c2)CC1` [Example 134] the value was more than 500 nM; for `CN1CCN(c2ccc(Nc3ncc(C(F)(F)F)c(NCCCN4CCCOC4=O)n3)c(C(C)(C)O)c2)CC1` [Example 135], 100 to 500 nM; for `CN(C)C1CN(c2ccc(Nc3ncc(C(F)(F)F)c(NCCCN4CCOCCC4=O)n3)c(C3CC3)c2)C1` [Example 136], 1 to 25 nM.

`CCc1cc(N2CC3CCC(C2)N3C)ccc1Nc1ncc(C(F)(F)F)c(NCCCN2CCCOCC2=O)n1` [Example 138] registered an IC50 on ULK1 kinase of 100 to 500 nM. The same measure, in the same setting: next, `CCc1cc(N2CC3CCC(C2)N3C)ccc1Nc1ncc(C(F)(F)F)c(NCCCN2CC(C)(C)C2=O)n1` [Example 139]: more than 500 nM. Turning to `CCc1cc(N2CC3CCC(C2)N3C)ccc1Nc1ncc(C(F)(F)F)c(NCCCN2CCC(C)(C)OC2=O)n1` [Example 140], the 50% inhibitory concentration (IC50) against ULK1 kinase lay in the range of 100 to 500 nM.

For the compound `CCc1cc(N2CCN(C)CC2)ccc1Nc1ncc(C(F)(F)F)c(NCCCN2CC(C)(C)C2=O)n1` [Example 141], the IC50 on ULK1 kinase fell in the range of 25 to 100 nM. As for `CCc1cc(N2CCN(C)CC2)ccc1Nc1ncc(C(F)(F)F)c(NCCCN2CCOCC(C)(C)C2=O)n1` [Example 142], on ULK1 kinase, the 50% inhibitory concentration (IC50) is 1 to 25 nM. On to `CCc1cc(C2CCN(C)C2)ccc1Nc1ncc(C(F)(F)F)c(NCCCN2CCOCCC2=O)n1` (stereo not shown) [Example 143], for which the IC50 on ULK1 kinase fell in the range of 1 to 25 nM. `CCc1cc(N2CC[C@@H](N(C)C)C2)ccc1Nc1ncc(C(F)(F)F)c(NCCCN2CCOCCC2=O)n1` [Example 144]: at ULK1 kinase, the 50% inhibitory concentration (IC50) fell in the range of 1 to 25 nM.

`CCc1cc(N2CC[C@H](N(C)C)C2)ccc1Nc1ncc(C(F)(F)F)c(NCCCN2CCOCCC2=O)n1` [Example 145] yielded an IC50 on ULK1 kinase of 1 to 25 nM. As to `CCc1cc(C2CCN(C)CC2)ccc1Nc1ncc(C(F)(F)F)c(NCCCN2CCOCCC2=O)n1` [Example 146], the 50% inhibitory concentration (IC50) against ULK1 kinase lay within 25 to 100 nM. The compound `CN(C)CC1CN(c2ccc(Nc3ncc(C(F)(F)F)c(NCCCN4CCCCC4=O)n3)c(C3CC3)c2)C1` [Example 151] returned an IC50 at ULK1 kinase of 1 to 25 nM. In turn, `CCc1cc(N2CC(CN(C)C)C2)ccc1Nc1ncc(C(F)(F)F)c(NCCCN2CCOCCC2=O)n1` [Example 152] returned an IC50 against ULK1 kinase of 1 to 25 nM.

Values taken from patent US11530206B2, “Phenylaminopyrimidine amide autophagy inhibitors and methods of use thereof” (Deciphera Pharmaceuticals, LLC, priority 2019, dated 2022).
